The values below come from patent US20140336503A1, “RA[…] […] RELATED METHODS THEREOF” (The Regents of the University of Michigan, priority 2013, published 2014).

One data set has as its target T1, human cathepsin K (Homo sapiens, UniProt P43235).
T1 sequence (P43235 115-329): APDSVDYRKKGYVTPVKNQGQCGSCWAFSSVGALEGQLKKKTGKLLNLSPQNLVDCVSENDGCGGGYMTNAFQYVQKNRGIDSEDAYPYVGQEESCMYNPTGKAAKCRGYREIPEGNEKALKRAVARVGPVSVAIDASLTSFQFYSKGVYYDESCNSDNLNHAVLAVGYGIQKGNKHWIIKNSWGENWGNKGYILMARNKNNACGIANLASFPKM
To be noted: in vitro; cited from earlier work.

The next data set concerns osteoclasts in bone. Briefly: microPET imaging of radioligand uptake into bone in normal rats, with blocking studies. The format is in vivo. To be noted: rat. The text has this:
Studies were done using imaging with Concorde Microsystems R4 and P4 PET scanners. Rats were anesthetized with isoflurane and maintained on 1% isoflurane throughout the imaging period. The animals were placed on their dorsal side in the scanner, and body temperature was maintained using a heating pad. A catheter was inserted into the tail vein for administration of radioactive solutions. Following a measured transmission scan, solutions of radioligands ([^11C]1 or ([^11C]2, 37-185 MBq in 0.5-1 mL volumes) were injected via the catheter, followed by a 1 ml flush of saline. For the blocking study, a 2 mg/kg dose of unlabeled compound 2 was administered 10 minutes prior to the injection of the radiolabeled [^11C]2. Emission data was collected for 60 minutes (12×5 min fames). The emission data was corrected for decay, dead time and random coincidences, then reconstructed using iterative ordered subset expectation maximization-maximum a posteriori (OSEM-MAP) yielding a reconstructed image resolution of approximately 1.4 mm. Volumetric regions of interest (ROIs) were defined using hand-drawn circular ROIs placed on the summed images, and the time-activity curves determined for each ROI (ASI Pro VM software: Siemens Medical Systems, Malvern, Pa.).

A short description of data set [1]: whole body biodistribution of radioactivity after intravenous injection in rats. The format is in vivo, rat. To be noted: female rats, i.v.; for Tissue biodistribution, Bone, avg: femur in its entirety. The protocol:
The whole body biodistribution of radioactivity after intravenous injection of [^11C]1 was determined in rats. Animals (N =6, female CD rats) were lightly anesthetized (isoflurane) and injected via the tail vein with 1.85-4.44 MBq of radioligand formulated in 5% ethanol/saline. At selected times (5 and 40 min), groups (N=3) of animals were anesthetized, euthanized (decapitation) and samples of tissues removed. Tissue samples were weighed, counted for carbon-11, and the data calculated as % injected dose/g.

With `COc1ccc(CCNC(=O)c2cnc(C#N)nc2NC2CCCCC2)cc1` [[^11C]1, 2-cyano-4-(cyclohexylamino)-N-(4-[^11C]methoxyphenethyl)-pyrimidine-5-carboxamide], on human cathepsin K, the IC50 was 0.0222 nM.
On to `[11CH3]Oc1ccc(CCNC(=O)c2cnc(C#N)nc2NC2CCCCC2)cc1` [[^11C]1, 2-cyano-4-(cyclohexylamino)-N-(4-[^11C]methoxyphenethyl)-pyrimidine-5-carboxamide], for which the “uptake and retention into target bone regions with low specific activity dose” value with osteoclasts in bone (10.8 GBq/μmol, co-injection of 14 micrograms/kg of unlabeled 1) was “nearly full block”. Also, in the data set with osteoclasts in bone (microPET), the “uptake and retention after pretreatment with unlabeled CCX” value is recorded as “reduced”; the “uptake in the growth plates (proximal humerus, distal ulnar, carpal, distal femur, proximal tibia, caudal vertebrae)” value is “high uptake”. In data set [1] (5 min), the “Tissue biodistribution, Adrenal, avg” value was found to be 3.57 % injected dose/g; the “Tissue biodistribution, Blood, avg” value was 0.24 % injected dose/g; the “Tissue biodistribution, Brain, avg” value is 0.43 % injected dose/g; the “Tissue biodistribution, Heart, avg” value was 1.23 % injected dose/g. Also, in data set [1] (5 min), the “Tissue biodistribution, Kidney, avg” value stood at 2.03 % injected dose/g; the “Tissue biodistribution, Liver, avg” value was 3.02 % injected dose/g; the “Tissue biodistribution, Lung, avg” value is 0.68 % injected dose/g; the “Tissue biodistribution, Muscle, avg” value is 0.11 % injected dose/g. In data set [1] (5 min), the “Tissue biodistribution, Pancreas, avg” value stood at 1.68 % injected dose/g; the “Tissue biodistribution, Spleen, avg” value worked out at 1.03 % injected dose/g; the “Tissue biodistribution, Bone, avg” value is listed as 0.26 % injected dose/g. Also, in data set [1] (40 min), the “Tissue biodistribution, Adrenal, avg” value is given as 0.51 % injected dose/g; the “Tissue biodistribution, Blood, avg” value came to 0.11 % injected dose/g; the “Tissue biodistribution, Brain, avg” value is given as 0.11 % injected dose/g; the “Tissue biodistribution, Heart, avg” value was 0.19 % injected dose/g. Also, in data set [1] (40 min), the “Tissue biodistribution, Kidney, avg” value stood at 0.41 % injected dose/g; the “Tissue biodistribution, Liver, avg” value is reported as 0.68 % injected dose/g; the “Tissue biodistribution, Lung, avg” value came out at 0.16 % injected dose/g; the “Tissue biodistribution, Muscle, avg” value is reported as 0.11 % injected dose/g. Moreover, in data set [1] (40 min), the “Tissue biodistribution, Pancreas, avg” value was determined as 0.56 % injected dose/g; the “Tissue biodistribution, Spleen, avg” value worked out at 0.22 % injected dose/g; the “Tissue biodistribution, Bone, avg” value was determined as 0.14 % injected dose/g.
`CC(C)(C)CNc1nc(C#N)ncc1C(=O)NCCc1ccc(O[11CH3])cc1` [[^11C]2, 2-cyano-N-(4-[^11C]methoxyphenethyl)-4-(neopentylamino)pyrimidine-5-carboxamide]: the “bone uptake of radioactivity after blocking dose of unlabeled ligand 2” value in the data set on osteoclasts in bone (2 mg/kg unlabeled 2, ten minutes prior to injection) was “reduction of bone uptake of radioactivity to essentially levels equivalent to background in non-target tissues”.
With `COc1ccc(CCNC(=O)c2cnc(C#N)nc2NCC(C)(C)C)cc1` [[^11C]2, 2-cyano-N-(4-[^11C]methoxyphenethyl)-4-(neopentylamino)pyrimidine-5-carboxamide], the IC50 at human cathepsin K is 0.003 nM.
